Literature values as cited in patent US20130338126A1, “Ophthalmic Suspension for Ocular Use” (Allergan, Inc., priority 2008, published 2013).

Experiments:
[1] = tested on: Corynebacterium propinquum, Staphylococcus aureus, Staphylococcus epidermidis, Streptococcus mitis, Streptococcus pneumoniae, Haemophilus influenzae; settings: both in vitro and clinically, in conjunctival infections
[2] = tested on: methicillin resistant Staphylococcus aureus, and Staphylococcus epidermidis; settings: in vitro, gram-positive microorganisms
[3] = tested on: Streptococcus epidermidis
[4] = tested on: gram-negative microorganisms; settings: many gram-negative microorganisms
[5] = tested on: Haemophylus influenzae clinical isolated cases; settings: clinical isolates
bacteria = settings: in vitro
[6] = tested on: Staphylococcus aureus and Staphylococcus epidermidis
[7] = tested on: topoisomerase II or gyrase mutations
[8] = ophthalmic solution 0.3% or 0.5% w/v, 2 drops up to 8 times a day; below inferior limit of quantification, all individuals
[9] = topical; p<0.005
bacterial conjunctivitis [10] = settings: 0.3% ophthalmic solution, treated five days
bacterial conjunctivitis [11] = settings: day 6 of treatment
[12] = tested on: bacterial flora in the eye
[13] = tested on: 379 isolated microorganisms; settings: first day of treatment
[14] = tested on: Streptococcus pneumoniae isolates; settings: all study visits
[15] = tested on: gram-negative bacteria, including all Haemophilus influenzae isolates; settings: all study visits
[16] = human, in vivo

Compound: COc1c(N2CCNC(C)C2)c(F)cc2c(=O)c(C(=O)O)cn(C3CC3)c12 (centres unmarked) [gatifloxacin]
- activity against most strains [1]: shown to be active
- potency compared with ciprofloxacin, ofloxacin, levofloxacin and moxifloxacin [2]: more powerful than other quinolones
- effectiveness relative to ofloxacin [3]: eight times more effective
- activity compared to ofloxacin [4]: increased activity compared to ofloxacin
- effectiveness relative to ofloxacin [5]: two times more effective
- effectiveness relative to ciprofloxacin (mycobacterium): four times more effective/active
- action when combined with amicacin and claritromicin (Mycobacterium chelonae): synergistic action
- effectiveness relative to ciprofloxacin (Mycobacterium chelonae; p<0.001): more effective than ciprofloxacin
- bacterial resistance (bacteria): low
- bacterial resistance rates [6]: lower for gatifloxacin than for ciprofloxacin or norfloxacin
- effect of mutations, compared to ofloxacin, ciprofloxacin, sparfloxacin and trovafloxacin [7]: less affected
- cross-resistance with aminoglycosides, macrolides and tetracycline antibiotics (pathogenic agents): No cross-resistance has been observed
- cross-resistance with some other fluoroquinolones (pathogenic agents; systemic gatifloxacin): Cross-resistance has been observed
- plasma levels [8]: < 5 ng/mL
- penetration in the eye structures compared to ciprofloxacin [9]: better penetration in the tissue
- killing rate of etiological agents (bacterial conjunctivitis [10]): 92%
- clinical cure rate (bacterial conjunctivitis [10]; culture-confirmed bacterial conjunctivitis): 77%
- rates of microbiological cure (bacterial conjunctivitis [11]): 83.3%
- action against gram-positive cocci versus ciprofloxacin (bacterial keratitis; p<0.001): significantly superior
- rate of complete ulcer healing versus ciprofloxacin (bacterial keratitis; patients with keratitis): significantly higher rate of complete ulcer healing
- rate of bacterial reduction in the conjunctiva ([12]; gatifloxacin 0.3% / levofloxacin 0.5% ophthalmic solutions, one week pre-operative): 74.3%
- post-operative infection (endophthalmitis) ([12]; one week pre-operative treatment, cataract surgery): None of the individuals treated develop a post-operative infection
- sensitiveness of isolates [13]: 95.8%
- sensitivity of isolates [14]: All Streptococcus pneumoniae isolates were sensitive
- sensitivity of isolates [15]: All gram-negative bacteria were also sensitive
- adverse events: frequency, type, intensity or relation to causes versus ofloxacin or placebo [16]: no statistically significant differences
